Assay results: PubChem BioAssay (NCI)
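The compound was tested at five concentrations on cells cultured in 96-well plates, with a 48-hour exposure period. TGI: concentration producing complete growth inhibition.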

Key:
Assay in all cases: NCI-60 cell line screen, 48 h
TK-10 renal = tested on: TK-10 renal
UO-31 renal = tested on: UO-31 renal
HCT-116 colon = tested on: HCT-116 colon
ACHN renal = tested on: ACHN renal
DU-145 prostate = tested on: DU-145 prostate
SF-295 CNS = tested on: SF-295 CNS
NCI-H23 lung = tested on: NCI-H23 lung
MDA-N = tested on: MDA-N
LOX IMVI melanoma = tested on: LOX IMVI melanoma
NCI/ADR-RES ovarian = tested on: NCI/ADR-RES ovarian
786-0 renal = tested on: 786-0 renal
A498 renal = tested on: A498 renal
COLO 205 colon = tested on: COLO 205 colon
NCI-H522 lung = tested on: NCI-H522 lung
HS 578T breast = tested on: HS 578T breast
RXF 393 renal = tested on: RXF 393 renal
SK-OV-3 ovarian = tested on: SK-OV-3 ovarian
CCRF-CEM leukemia = tested on: CCRF-CEM leukemia
NCI-H460 lung = tested on: NCI-H460 lung
SF-268 CNS = tested on: SF-268 CNS

CCCCc1ccc(Nc2nc(Cl)c3c(ncn3COCCOC(C)=O)n2)cc1 gave a TGI (TK-10 renal) of 41.8 µM, a TGI (UO-31 renal) of 33.7 µM and a TGI (HCT-116 colon) of 31.3 µM. The TGI (ACHN renal) was 35.8 µM, the TGI (DU-145 prostate) was 30.5 µM and the TGI (SF-295 CNS) was 28.2 µM. For the same compound, the TGI (NCI-H23 lung) was 35.6 µM, the TGI (MDA-N) was 34.4 µM and the TGI (LOX IMVI melanoma) was 34 µM. For the same compound, the TGI (NCI/ADR-RES ovarian) was 41.2 µM, the TGI (786-0 renal) was 36.9 µM and the TGI (A498 renal) was 38.8 µM. For the same compound, the TGI (COLO 205 colon) was 45.5 µM, the TGI (NCI-H522 lung) was 33.4 µM and the TGI (HS 578T breast) was 55.2 µM. For the same compound, the TGI (RXF 393 renal) was 28.4 µM, the TGI (SK-OV-3 ovarian) was 42.9 µM and the TGI (CCRF-CEM leukemia) was 60.7 µM. For the same compound, the TGI (NCI-H460 lung) was 34.4 µM and the TGI (SF-268 CNS) was 38.5 µM.

In the case of O=S1(=O)c2cnccc2NC(=NCc2cccc3ccccc23)N1c1ccccc1, the TGI (TK-10 renal) is reported as > 100 µM, the TGI (UO-31 renal) is reported as > 100 µM and the TGI (HCT-116 colon) is reported as > 100 µM. For the same compound, the TGI (ACHN renal) was > 100 µM, the TGI (DU-145 prostate) was > 100 µM and the TGI (SF-295 CNS) was > 100 µM. The TGI (NCI-H23 lung) was > 100 µM, the TGI (MDA-N) was 26.9 µM and the TGI (LOX IMVI melanoma) was > 100 µM. The TGI (NCI/ADR-RES ovarian) was > 100 µM, the TGI (786-0 renal) was 74.7 µM and the TGI (A498 renal) was > 100 µM. The TGI (COLO 205 colon) was > 100 µM, the TGI (NCI-H522 lung) was > 100 µM and the TGI (HS 578T breast) was > 100 µM. For the same compound, the TGI (RXF 393 renal) was > 90.4 µM, the TGI (SK-OV-3 ovarian) was > 100 µM and the TGI (CCRF-CEM leukemia) was > 100 µM. For the same compound, the TGI (NCI-H460 lung) was > 100 µM and the TGI (SF-268 CNS) was > 100 µM.

CCOC(=O)C(c1c[nH]c2ccccc12)(c1c[nH]c2ccccc12)c1c[nH]c2ccccc12 was tested, and the TGI (TK-10 renal) was > 100 µM, the TGI (UO-31 renal) was > 100 µM and the TGI (HCT-116 colon) was > 100 µM. The TGI (ACHN renal) was > 100 µM, the TGI (DU-145 prostate) was > 100 µM and the TGI (SF-295 CNS) was > 100 µM. For the same compound, the TGI (NCI-H23 lung) was > 100 µM, the TGI (MDA-N) was > 100 µM and the TGI (LOX IMVI melanoma) was > 100 µM. For the same compound, the TGI (NCI/ADR-RES ovarian) was > 100 µM, the TGI (786-0 renal) was > 100 µM and the TGI (A498 renal) was > 100 µM. It also gave a TGI (COLO 205 colon) of 39.2 µM, a TGI (NCI-H522 lung) of 80.1 µM and a TGI (HS 578T breast) of 76.2 µM. For the same compound, the TGI (RXF 393 renal) was 87.5 µM, the TGI (SK-OV-3 ovarian) was > 100 µM and the TGI (CCRF-CEM leukemia) was 58.9 µM. For the same compound, the TGI (NCI-H460 lung) was > 100 µM and the TGI (SF-268 CNS) was > 100 µM.
